From PubChem BioAssay (NCI)
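Method: 48-hour compound exposure of cells in 96-well plates, five concentrations, linear interpolation of endpoints. At the GI50, growth is halved. Definition used: TGI = concentration required for complete inhibition of growth.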

Columns and labels:
Experiment in all cases: NCI tumour cell line growth inhibition, 48 h
786-0 renal = system: 786-0 renal
A498 renal = system: A498 renal
A549 NSCLC = system: A549 NSCLC
ACHN renal = system: ACHN renal
BT-549 breast = system: BT-549 breast
CAKI-1 renal = system: CAKI-1 renal
CCRF-CEM leukemia = system: CCRF-CEM leukemia
COLO 205 colon = system: COLO 205 colon
DU-145 prostate = system: DU-145 prostate
EKVX NSCLC = system: EKVX NSCLC
HCC-2998 colon = system: HCC-2998 colon
HCT-116 colon = system: HCT-116 colon
HCT-15 colon = system: HCT-15 colon
HL-60(TB) leukemia = system: HL-60(TB) leukemia
HOP-62 NSCLC = system: HOP-62 NSCLC
HS 578T breast = system: HS 578T breast
HT29 colon = system: HT29 colon
IGROV1 ovarian = system: IGROV1 ovarian
K-562 leukemia = system: K-562 leukemia
KM12 colon = system: KM12 colon
LOX IMVI melanoma = system: LOX IMVI melanoma
M14 melanoma = system: M14 melanoma
MALME-3M melanoma = system: MALME-3M melanoma
MCF7 breast = system: MCF7 breast
MDA-MB-231 breast = system: MDA-MB-231 breast
MDA-MB-435 = system: MDA-MB-435
MOLT-4 leukemia = system: MOLT-4 leukemia
NCI-H226 lung = system: NCI-H226 lung
NCI-H23 lung = system: NCI-H23 lung
NCI-H460 lung = system: NCI-H460 lung
NCI-H522 lung = system: NCI-H522 lung
NCI/ADR-RES ovarian = system: NCI/ADR-RES ovarian
OVCAR-3 ovarian = system: OVCAR-3 ovarian
OVCAR-4 ovarian = system: OVCAR-4 ovarian
OVCAR-5 ovarian = system: OVCAR-5 ovarian
OVCAR-8 ovarian = system: OVCAR-8 ovarian
PC-3 prostate = system: PC-3 prostate
RPMI-8226 leukemia = system: RPMI-8226 leukemia
SF-268 CNS = system: SF-268 CNS
SF-295 CNS = system: SF-295 CNS
SF-539 CNS = system: SF-539 CNS
SK-MEL-2 melanoma = system: SK-MEL-2 melanoma
SK-MEL-28 melanoma = system: SK-MEL-28 melanoma
SK-MEL-5 melanoma = system: SK-MEL-5 melanoma
SK-OV-3 ovarian = system: SK-OV-3 ovarian
SN12C renal = system: SN12C renal
SNB-19 CNS = system: SNB-19 CNS
SNB-75 CNS = system: SNB-75 CNS
SR leukemia = system: SR leukemia
SW-620 colon = system: SW-620 colon
T-47D breast = system: T-47D breast
TK-10 renal = system: TK-10 renal
U251 CNS = system: U251 CNS
UACC-257 melanoma = system: UACC-257 melanoma
UACC-62 melanoma = system: UACC-62 melanoma
UO-31 renal = system: UO-31 renal

Molecule `COc1cc(NC(=O)c2ccc(C(F)(F)F)nc2Nc2ccc(Cl)cc2C)cc(OC)c1OC` has a GI50 (786-0 renal) of 5.56 µM, a TGI (786-0 renal) of 22.4 µM and a GI50 (A498 renal) of 3.9 µM. It also gave a TGI (A498 renal) of 23.8 µM, a GI50 (A549 NSCLC) of 5.82 µM and a TGI (A549 NSCLC) of over 100 µM. It also gave a GI50 (ACHN renal) of 3.74 µM, a TGI (ACHN renal) of 35.5 µM and a GI50 (BT-549 breast) of 10.7 µM. It also gave a TGI (BT-549 breast) of 26.6 µM, a GI50 (CAKI-1 renal) of 3.36 µM and a TGI (CAKI-1 renal) of 9.85 µM. It also gave a GI50 (CCRF-CEM leukemia) of 1.58 µM, a TGI (CCRF-CEM leukemia) of 29.5 µM and a GI50 (COLO 205 colon) of 4.06 µM. For the same molecule, the TGI (COLO 205 colon) was 15.5 µM, the GI50 (DU-145 prostate) was 11.7 µM and the TGI (DU-145 prostate) was 57.3 µM. It also gave a GI50 (EKVX NSCLC) of 6.34 µM, a TGI (EKVX NSCLC) of over 100 µM and a GI50 (HCC-2998 colon) of 1.89 µM. The TGI (HCC-2998 colon) was 5.61 µM, the GI50 (HCT-116 colon) was 3.14 µM and the TGI (HCT-116 colon) was 13.4 µM. The GI50 (HCT-15 colon) was 4.35 µM, the TGI (HCT-15 colon) was 21.2 µM and the GI50 (HL-60(TB) leukemia) was 1.76 µM. The TGI (HL-60(TB) leukemia) was 15.2 µM, the GI50 (HOP-62 NSCLC) was 5.95 µM and the TGI (HOP-62 NSCLC) was 18.2 µM. It also gave a GI50 (HS 578T breast) of 4.65 µM, a TGI (HS 578T breast) of 38.7 µM and a GI50 (HT29 colon) of 4.92 µM. The TGI (HT29 colon) was 19.3 µM, the GI50 (IGROV1 ovarian) was 0.958 µM and the TGI (IGROV1 ovarian) was 23 µM. The GI50 (K-562 leukemia) was 3.01 µM, the TGI (K-562 leukemia) was over 100 µM and the GI50 (KM12 colon) was 1.55 µM. It also gave a TGI (KM12 colon) of 13.2 µM, a GI50 (LOX IMVI melanoma) of 3.23 µM and a TGI (LOX IMVI melanoma) of 13.5 µM. The GI50 (M14 melanoma) was 4.14 µM, the TGI (M14 melanoma) was 18.9 µM and the GI50 (MALME-3M melanoma) was 4.94 µM. For the same molecule, the TGI (MALME-3M melanoma) was 24 µM, the GI50 (MCF7 breast) was 2.39 µM and the TGI (MCF7 breast) was 16.2 µM. It also gave a GI50 (MDA-MB-231 breast) of 3.73 µM, a TGI (MDA-MB-231 breast) of 14.8 µM and a GI50 (MDA-MB-435) of 4.19 µM. For the same molecule, the TGI (MDA-MB-435) was 21.3 µM, the GI50 (MOLT-4 leukemia) was 2.54 µM and the TGI (MOLT-4 leukemia) was 18.2 µM. It also gave a GI50 (NCI-H226 lung) of 10.8 µM, a TGI (NCI-H226 lung) of 31.7 µM and a GI50 (NCI-H23 lung) of 2.2 µM. It also gave a TGI (NCI-H23 lung) of 10.6 µM, a GI50 (NCI-H460 lung) of 3.3 µM and a TGI (NCI-H460 lung) of 12.9 µM. The GI50 (NCI-H522 lung) was 1.61 µM, the TGI (NCI-H522 lung) was 14.4 µM and the GI50 (NCI/ADR-RES ovarian) was 3.62 µM. It also gave a TGI (NCI/ADR-RES ovarian) of 17.1 µM, a GI50 (OVCAR-3 ovarian) of 2.41 µM and a TGI (OVCAR-3 ovarian) of 13.3 µM. For the same molecule, the GI50 (OVCAR-4 ovarian) was 2.77 µM, the TGI (OVCAR-4 ovarian) was 25.3 µM and the GI50 (OVCAR-5 ovarian) was 10.8 µM. It also gave a TGI (OVCAR-5 ovarian) of 27.7 µM, a GI50 (OVCAR-8 ovarian) of 6.19 µM and a TGI (OVCAR-8 ovarian) of over 100 µM. It also gave a GI50 (PC-3 prostate) of 1.86 µM, a TGI (PC-3 prostate) of 10.5 µM and a GI50 (RPMI-8226 leukemia) of 2.96 µM. The TGI (RPMI-8226 leukemia) was 17.5 µM, the GI50 (SF-268 CNS) was 6.67 µM and the TGI (SF-268 CNS) was 28.9 µM. The GI50 (SF-295 CNS) was 5.36 µM, the TGI (SF-295 CNS) was 23.1 µM and the GI50 (SF-539 CNS) was 10.6 µM. For the same molecule, the TGI (SF-539 CNS) was over 100 µM, the GI50 (SK-MEL-2 melanoma) was 10.3 µM and the TGI (SK-MEL-2 melanoma) was 28.3 µM. For the same molecule, the GI50 (SK-MEL-28 melanoma) was 4.4 µM, the TGI (SK-MEL-28 melanoma) was 26.4 µM and the GI50 (SK-MEL-5 melanoma) was 2.95 µM. For the same molecule, the TGI (SK-MEL-5 melanoma) was 14.9 µM, the GI50 (SK-OV-3 ovarian) was 5.15 µM and the TGI (SK-OV-3 ovarian) was 36.1 µM. It also gave a GI50 (SN12C renal) of 6.75 µM, a TGI (SN12C renal) of 31 µM and a GI50 (SNB-19 CNS) of 5.77 µM. It also gave a TGI (SNB-19 CNS) of 48.9 µM, a GI50 (SNB-75 CNS) of 2.78 µM and a TGI (SNB-75 CNS) of 18.5 µM. The GI50 (SR leukemia) was 2.77 µM, the TGI (SR leukemia) was 13.5 µM and the GI50 (SW-620 colon) was 5.92 µM. For the same molecule, the TGI (SW-620 colon) was 18.8 µM, the GI50 (T-47D breast) was 2.47 µM and the TGI (T-47D breast) was 21.3 µM. It also gave a GI50 (TK-10 renal) of 5.83 µM, a TGI (TK-10 renal) of 29.1 µM and a GI50 (U251 CNS) of 4.86 µM. For the same molecule, the TGI (U251 CNS) was 17.5 µM, the GI50 (UACC-257 melanoma) was 3.4 µM and the TGI (UACC-257 melanoma) was 19.3 µM. For the same molecule, the GI50 (UACC-62 melanoma) was 3.05 µM, the TGI (UACC-62 melanoma) was 15.9 µM and the GI50 (UO-31 renal) was 2.68 µM. It also gave a TGI (UO-31 renal) of 17.9 µM.
